From ChEMBL document CHEMBL1687942, “Benzimidazole inhibitors induce a DFG-out conformation of never in mitosis gene A-related kinase 2 (Nek2) without binding to the back pocket and reveal a nonlinear structure-activity relationship” (J Med Chem, 2011) come the findings set out here.

For series [1], the target named is T1, Serine/threonine-protein kinase PLK1 (Homo sapiens, UniProt P53350). Put plainly: Inhibition of polo-like kinase 1 activity.
Series [2] can be described thus: Apparent permeability of the compound by PAMPA at pH 7.4.
Series [3] has as its target T2, Serine/threonine-protein kinase Nek2 (Homo sapiens, UniProt P51955).
T2 sequence (P51955 whole entry): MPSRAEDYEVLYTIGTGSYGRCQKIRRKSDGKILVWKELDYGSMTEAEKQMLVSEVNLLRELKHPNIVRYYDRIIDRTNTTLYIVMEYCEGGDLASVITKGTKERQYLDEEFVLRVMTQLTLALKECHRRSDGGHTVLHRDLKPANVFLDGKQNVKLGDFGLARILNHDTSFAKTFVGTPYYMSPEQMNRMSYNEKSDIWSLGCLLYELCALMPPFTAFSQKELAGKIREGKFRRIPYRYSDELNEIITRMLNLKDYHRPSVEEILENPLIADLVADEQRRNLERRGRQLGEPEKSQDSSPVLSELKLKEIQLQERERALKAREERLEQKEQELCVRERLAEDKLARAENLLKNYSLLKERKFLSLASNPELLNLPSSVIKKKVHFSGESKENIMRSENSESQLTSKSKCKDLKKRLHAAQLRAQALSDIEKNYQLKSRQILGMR

Series [4] deals with T1, Serine/threonine-protein kinase PLK1. The note with it: 200 uM.
Description: Inhibition of polo-like kinase 1 activity at 200 uM
Series [5] concerns the target T2, Serine/threonine-protein kinase Nek2. The experiment in a line: Inhibition of NEK2 autophosphorylation preincubated with compound by DELFIA assay.
Series [6] shares this target. The experiment in a line: Inhibition of NEK2 assessed as inhibition of substrate phosphorylation preincubated for 5 mins before addition of substrate by DELFIA assay.
Series [7] has as its target Tyrosine-protein kinase ABL1 (Mus musculus) (UniProt P00520). Put plainly: Inhibition of mouse Abl at 2 uM.
In series [8] the target is T1, Serine/threonine-protein kinase PLK1. The experiment in a line: Inhibition of polo-like kinase 1 activity at 100 uM.
The target in series [9] is T3, Serine/threonine-protein kinase Nek2 (Homo sapiens) (UniProt P51955).
T3 sequence (whole entry): T2 sequence (P51955 whole entry)
The experiment in a line: Inhibition of NEK2 at 200 uM.

Activity calls are given as the source filed them. No cut-off for these calls is given here.

T1 sequence (P53350 whole entry): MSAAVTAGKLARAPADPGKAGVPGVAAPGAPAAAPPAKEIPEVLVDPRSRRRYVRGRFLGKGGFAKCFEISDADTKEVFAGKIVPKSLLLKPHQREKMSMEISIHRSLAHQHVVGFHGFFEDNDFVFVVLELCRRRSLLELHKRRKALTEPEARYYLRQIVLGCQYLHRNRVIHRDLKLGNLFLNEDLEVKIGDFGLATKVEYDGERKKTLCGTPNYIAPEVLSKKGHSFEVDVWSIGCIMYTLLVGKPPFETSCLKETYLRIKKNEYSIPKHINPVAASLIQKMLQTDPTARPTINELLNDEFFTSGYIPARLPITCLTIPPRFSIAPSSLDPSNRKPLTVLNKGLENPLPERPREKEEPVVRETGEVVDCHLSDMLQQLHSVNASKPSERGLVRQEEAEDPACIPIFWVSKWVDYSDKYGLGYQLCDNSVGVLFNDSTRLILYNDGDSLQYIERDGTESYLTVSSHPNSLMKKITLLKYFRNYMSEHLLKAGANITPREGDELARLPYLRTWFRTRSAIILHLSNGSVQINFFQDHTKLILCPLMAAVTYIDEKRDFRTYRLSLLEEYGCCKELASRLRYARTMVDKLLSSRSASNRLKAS
Sequence of Tyrosine-protein kinase ABL1 (Mus musculus) (P00520 whole entry): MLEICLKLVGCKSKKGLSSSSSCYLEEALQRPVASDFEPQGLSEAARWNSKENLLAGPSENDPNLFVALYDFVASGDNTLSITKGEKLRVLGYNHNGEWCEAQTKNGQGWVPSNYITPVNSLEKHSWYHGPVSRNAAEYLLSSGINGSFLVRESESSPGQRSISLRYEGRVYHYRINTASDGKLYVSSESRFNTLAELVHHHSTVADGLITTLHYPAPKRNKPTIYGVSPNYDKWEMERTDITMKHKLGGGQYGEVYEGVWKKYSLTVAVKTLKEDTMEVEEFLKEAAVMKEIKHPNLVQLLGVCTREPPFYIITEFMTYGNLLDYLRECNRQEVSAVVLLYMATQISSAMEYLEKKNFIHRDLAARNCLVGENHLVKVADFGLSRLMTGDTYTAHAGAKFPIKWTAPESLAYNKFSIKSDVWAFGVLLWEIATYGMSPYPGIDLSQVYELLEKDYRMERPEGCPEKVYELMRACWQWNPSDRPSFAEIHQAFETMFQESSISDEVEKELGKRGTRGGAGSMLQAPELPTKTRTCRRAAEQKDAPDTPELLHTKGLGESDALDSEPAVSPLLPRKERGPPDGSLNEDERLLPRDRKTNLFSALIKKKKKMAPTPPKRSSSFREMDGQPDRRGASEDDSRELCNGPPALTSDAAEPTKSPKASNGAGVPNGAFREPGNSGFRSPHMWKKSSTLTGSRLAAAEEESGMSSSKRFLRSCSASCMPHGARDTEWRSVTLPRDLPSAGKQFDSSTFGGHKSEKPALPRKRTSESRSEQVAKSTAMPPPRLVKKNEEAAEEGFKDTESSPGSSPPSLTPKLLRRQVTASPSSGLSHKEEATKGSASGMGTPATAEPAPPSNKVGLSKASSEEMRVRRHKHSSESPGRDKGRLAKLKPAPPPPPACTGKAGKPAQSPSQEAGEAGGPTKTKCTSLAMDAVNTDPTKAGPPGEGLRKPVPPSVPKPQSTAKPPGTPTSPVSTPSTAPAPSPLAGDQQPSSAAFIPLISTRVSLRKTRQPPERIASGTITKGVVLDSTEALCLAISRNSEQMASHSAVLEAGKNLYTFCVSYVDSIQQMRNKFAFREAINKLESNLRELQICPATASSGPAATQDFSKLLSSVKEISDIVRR

In the case of `CN1CCC(Oc2ccc3ncn(-c4cc(OCc5ccccc5C(F)(F)F)c(C(N)=O)s4)c3c2)CC1`, the IC50 in [1] is less than 9 nM.
Regarding `C[C@@H](Oc1cc(-n2cnc3cc(OC4CCN(C)CC4)ccc32)ccc1C(N)=O)c1ccccc1C(F)(F)F`, the IC50 in [1] was 51300 nM. Also, in series [2], the Papp is 33.4 ×10⁻⁶ cm/s.
Regarding `CN1CCC(Oc2ccc3ncn(-c4cc(OCc5ccccc5)c(C(N)=O)s4)c3c2)CC1`, the IC50 is 69 nM in series [1] and 5430 nM in series [3].
With `COc1cc(-n2cnc3ccc(OC4CCN(C)CC4)cc32)sc1C(N)=O`, the IC50 in series [1] is 1330 nM; in [3], 64400 nM.
Consider `COc1cc(-n2cnc3ccccc32)sc1C(N)=O`, for which the figures for the IC50 in series [1] and in series [3] were 5310 nM and 86000 nM, respectively.
For `C[C@H](Oc1cc(-n2cnc3cc(OC4CCN(C)CC4)ccc32)ccc1C(N)=O)c1ccccc1C(F)(F)F`, the inhibition result in series [4] is “inactive”.
For `CC(Oc1cc(-n2cnc3ccc(OC4CCN(C)CC4)cc32)sc1C(N)=O)c1ccccc1C(F)(F)F` (racemic), the IC50 in [5] was 50 nM; in series [6], 200 nM.
Take `CC(Oc1cc(-n2cnc3ccc(OC4CCN(C)CC4)cc32)sc1C(N)=O)c1ccccc1` (racemic): the results for the IC50 in series [1] and in series [3] were 66 nM and 6570 nM, respectively.
With `CC(Oc1cc(-n2cnc3ccccc32)sc1C(N)=O)c1ccccc1C(F)(F)F` (racemic), the values for the IC50 in series [1] and in [3] were less than 9 nM and more than 50000 nM, respectively.
Consider `CC(Oc1cc(-n2cnc3ccc(OC4CCN(C)CC4)cc32)ccc1C(N)=O)c1ccccc1C(F)(F)F` (racemic), for which the IC50 came out at 190 nM in series [1] and 660 nM in [3].
In series [1], `CC(Oc1cc(-n2cnc3cc(OC4CCN(C)CC4)ccc32)ccc1C(N)=O)c1ccccc1C(F)(F)F` (racemic) registered an IC50 of 87900 nM. In addition, the inhibition result in series [7] was “Active”.
With `CC(Oc1cc(-n2cnc3cc(OCCCN(C)C)ccc32)ccc1C(N)=O)c1ccccc1C(F)(F)F` (racemic), the figures for the IC50 in series [1] and in series [3] were 15200 nM and 380 nM, respectively.
As to `CC(Oc1cc(-n2cnc3cc(OC4CCN(C5CC5)CC4)ccc32)ccc1C(N)=O)c1ccccc1C(F)(F)F` (racemic), in series [8], the inhibition result is “inactive”. In series [3], the midpoint of inhibition, the IC50, lay at 2560 nM.
On to `CC(Oc1cc(-n2cnc3cc(OC4CCCCC4)ccc32)ccc1C(N)=O)c1ccccc1C(F)(F)F` (racemic), for which the inhibition result in series [9] and in [8] was “inactive” each time.
